# Test results from patent publication US20140190225A1, “ALTERING ANIMAL WASTE COMPOSITION” (AgResearch Limited, priority 2004, published 2014).
# Legend:
# [1] = tested on: conversion of nitrogen containing compounds; settings: cited from earlier work
# [2] = tested on: nitrification inhibition in soil; experiment: Laboratory soil incubation with urine from DCD-treated cows
# Experimental: A laboratory incubation experiment was set up to confirm that the DCD contained in urine from DCD-treated cows retained its nitrification inhibition properties after application to soil. Urine from DCD-treated cows was compared to urine from non-treated cows spike with varying rates of DCD.
# [3] = tested on: nitrification of urine/urea-N in soil; experiment: Soil incubation with urine from abomasally infused sheep: nitrification; settings: urine from sheep with abomasal infusion, DCD 15 g/day or 4 MP 1 g/day; soil incubated at 20° C.
# Experimental: (§1) This was determined by firstly measuring the urea concentration in urine samples and adjusting the urine volume (or in a few samples with low concentrations, urea was added) so that the same rate of urea-N was added to soil (100 g) in plastic bags. The soil was a Horotiu silt loam derived from volcanic ash taken from a pastoral site which had been ungrazed for over 6 months so that no residual animal urine was present.
# (§2) The urine-treated soil samples were incubated at 20° C. and sub-samples were removed at regular intervals over time for analysis of ammonium and nitrate in 2M KCl extracts using standard methods. The level of inhibition of nitrification was evident from less nitrate formation (FIG. 4B; P<0.001 at all incubation times) and higher ammonium levels (FIG. 4A; P<0.001 at all incubation times). Inhibition of nitrification was higher for DCD than for 4 MP (P<0.01), with an average reduction in nitrate production relative to the control of 96 and 51%, respectively (FIG. 4C). This difference may have been influenced by the rate of inhibitor used.
# [4] = DCD in urine of sheep, ruminal infusion (HPLC); assay type: in vivo
# Experimental: (§3) The 12 sheep were randomly allocated to one of 2 treatments; water infusion (Control) or DCD at 15 g/day (DCD group). Experimental methodology was the same as for the abomasal infusion study in that there was a 4 day period of continuous infusion followed by an 11 day non-treatment clearance/rest period.
# Presence of DCD in urine samples was determined using high-performance liquid chromotography. […] However, concentrations of DCD in urine were lower at day 1 of infusion than days 2-4, as expected because of time for rumen processing. Levels declined after ceasing infusion and were negligible within 7 days (FIG. 5).
# nitrate leaching = experiment: Lysimeter study: nitrate leaching; settings: inhibitor added to cow urine, 1.5 g DCD/m^2 or 0.1 g 4 MP/m^2; 104 days
# Excerpt: (§4) Undisturbed soil lysimeters (30 cm diameter×50 cm depth) were collected from a pastoral site near Lake Taupo which had been under a cutting regime with no grazing animals for over 18 months. The soil was a Taupo sandy loam (yellow brown pumice or allophanic soil). A gap (c. 1 cm) between the side of the soil cores and the PVC lysimeter housing was filled with Vaseline to stop possible edge-flow of water or urine. The lysimeters were transferred to a lysimeter facility (near Hamilton, New Zealand) where they were buried in soil so that the soil surface in the lysimeter was at ground level. However, the lysimeter casing extended about 4 cm above the soil surface to stop any lateral surface loss.
# There were five replicate lysimeters with the following treatments included: a control, urine, urine+DCD, and urine+4 MP. Urine was collected from Jersey dairy cows, stored at 4° C. and applied to the lysimeters within 4 days. The urine solution was applied at 10 L/m^2 giving the equivalent of 800 kg N/ha (similar to that for a cow urine patch). […]
# Nitrate leaching from lysimeters was measured by collection of leachate draining from the base of each lysimeter. This drainage water was collected at regular intervals and analysed for nitrate concentration. […]
# [5] = DCD in urine of sheep, abomasal infusion (HPLC); assay type: in vivo
# Excerpt: (§5) Sheep were then transferred indoors to metabolism crates.
# Infusion of treatments continued for 4 days, after which there was an 11 day non-treatment clearance/rest period before repeating this phase. Sheep allocation to treatments changed over each period in a statistical cross-over design (defined by statisticians) so that 11 sheep had been subjected to each of 3 treatments (control, DCD and 4 MP), and so that within- and between-sheep variability could be evaluated.
# Presence of DCD in urine samples was determined using high-performance liquid chromotography. […] There was some variability between sheep in DCD concentrations in urine, but this reflected differences in urination volumes (FIG. 3) so that there was much less difference in the amount of DCD excreted per urination. Concentrations of DCD in urine declined to negligible levels within 7 days after ceasing infusion (FIG. 2).
# [6] = DCD in urine of dairy heifers drenched daily; assay type: in vivo; settings: daily drench
# Excerpt: In addition, in a separate study, dairy heifers were drenched daily with a DCD solution.
# [7] = Excretion efficiency of DCD in non-lactating dairy cows (metabolism stall study); assay type: in vivo
# Experimental: The efficiency of excretion of DCD in urine relative to DCD administered to animals was determined in a metabolism stall study involving five non-lactating dairy cows. The study was conducted on the DairyNZ Lye Farm, near Hamilton, New Zealand.
# Each cow was fed a diet of pasture silage.
# The five cows were administered DCD via addition to the pasture silage feed at a dosage rate was 30 g/animal/day.
# Animal waste collectors were fitted to animals and configured to collect urine and dung separately. The animal waste was analysed for DCD concentration using known analysis techniques.
# [8] = Freezing of urine: presence and activity of inhibitors; assay type: physicochemical; settings: urine frozen at −20° C.
# Excerpt: During each infusion period the sheep were housed in metabolism crates to allow daily collection of urine and faeces samples. Single urination event samples were also collected from each sheep every day and were frozen for subsequent analysis of inhibitor content and for inhibitory activity in soil.
# [9] = Tolerability of abomasal infusion in sheep; assay type: in vivo; settings: DCD 15 g/day, 4 MP 1 g/day, Agrotain 80 g/day
# Excerpt: as §5
# nitrous oxide emissions = experiment: Lysimeter study: nitrous oxide emission
# Excerpt: as §4
# There were five replicate lysimeters with the following treatments included: a control, urine, urine+DCD, and urine+4 MP. Urine was collected from Jersey dairy cows, stored at 4° C. and applied to the lysimeters within 4 days. The urine solution was applied at 10 L/m^2 giving the equivalent of 800 kg N/ha (similar to that for a cow urine patch). For the DCD and 4 MP treatments, the inhibitor compounds were dissolved in the urine prior to application to represent urine excreted from inhibitor-administered animals. Inputs in these treatments were equivalent to 1.5 g DCD/m^2 and 0.1 g 4 MP/m^2.
# Lysimeters were left to stabilise for several weeks after installation in the facility. Treatments were applied in May 2004. Pasture on the lysimeters was trimmed prior to treatment application and was regularly cut at heights and intervals similar to that under dairy cow grazing.
# Nitrous oxide (N2O) emission from the main lysimeters was measured using a standard closed chamber method. Chambers were placed on the lysimeters at regular intervals during the study for periods of one hour at around midday. Gas samples were collected at 0, 30 and 60 minutes from the headspace of the chambers for N2O analysis by gas chromatography. […] Cumulative N2O emissions over the measurement period averaged 1.2 and 0.5 kg N/ha for the urine and urine+DCD treatments, giving a 57% reduction from DCD.
# [10] = Excretion efficiency of DCD in sheep; assay type: in vivo
# [11] = tested on: nitrification of urine/urea-N in soil; experiment: Soil incubation with urine from ruminally infused sheep: nitrification; settings: urine from sheep with ruminal infusion of DCD 15 g/day
# Experimental: as §1, §2, §3
# [12] = cows, 30 g/animal/day in feed, at equilibrium
smiles,measurement,setting,value
"N#CN=C(N)N [DCD, dicyandiamide]",effectiveness at a rate of approximately 5 kg/ha,[1]; DCD rate on land approximately 5 kg/ha,relatively ineffective
same,improvement at rates in excess of 10 kg/ha compared to 10 kg/ha,"[1]; application to land, most soils, rainfall below about 1500 mm/year",negligible improvements
same,"DCD in urine from DCD-treated cows, measured rate equivalent",[2]; FIG. 11 legend,51 kg DCD/ha
same,nitrification inhibition in soil of DCD in urine from treated cows versus urine spiked with an equivalent level of DCD,[2]; laboratory incubation,same level of nitrification inhibition
same,average reduction in nitrate production relative to the control,[3],96%
same,DCD excretion in urine over the infusion period,"[4]; DCD 15 g/day ruminal infusion, 4 days",high levels of DCD were absorbed and excreted in urine in an unaltered form
same,time for DCD in urine to become negligible after ceasing infusion,[4]; ruminal infusion 15 g/day,≤ 7 days
same,reduction in cumulative nitrate leaching versus urine treatment,nitrate leaching,56%
same,DCD concentration in urine during the infusion period,"[5]; DCD 15 g/day abomasal infusion, versus control, P<0.001",highly significant increase
same,time for DCD in urine to decline to negligible levels after ceasing infusion,[5]; abomasal infusion 15 g/day,≤ 7 days
same,DCD concentration in urine over a 90 day treatment period,[6],remained relatively constant
same,efficiency of excretion in urine,[7]; cattle such as beef or dairy,80-81%
same,DCD administered recovered in dung,[7]; [12],10%
same,DCD administered recovered in urine,[7]; [12],81%
same,effect of freezing urine on presence or activity,[8],no effect
same,"effect of infusion on sheep (live-weight changes, body condition, general bodily function, feed intake)",[9],no adverse effect
same,reduction in cumulative N2O emissions,nitrous oxide emissions; urine+DCD versus urine,57%
same,cumulative N2O emissions over the measurement period,"nitrous oxide emissions; urine+DCD, 1.5 g DCD/m^2, urine alone 1.2",0.5 kg N/ha
same,efficiency of transfer to urine,[10],approximately 86%
same,average reduction in nitrate production,[11],81%
"Cc1cn[nH]c1 [4 MP, 4 methylpyrazole]",average reduction in nitrate production relative to the control,[3],51%
same,reduction in cumulative nitrate leaching versus urine treatment,nitrate leaching,71%
same,"effect of infusion on sheep (live-weight changes, body condition, general bodily function, feed intake)",[9],no adverse effect
same,effect on nitrous oxide emissions,"nitrous oxide emissions; inhibitor added to urine, lysimeters",reducing
